Source: patent US12466804B2 (BRISTOL-MYERS SQUIBB COMPANY, priority 2019, dated 2025)
Read-outs that look alike come from different tables or passages of the source. Values belong to the compound of their own block, whether it stands above or below them.

Experiments:
human LPA1 = target: T1, human LPA1 (Homo sapiens, UniProt Q92633); assay: LPA1 functional antagonist assay (LPA-induced calcium flux); format: cell-based
T1 construct: expressed in transfected cells; host or cells: Chinese hamster ovary (CHO) cells
T1 sequence (Q92633 whole entry): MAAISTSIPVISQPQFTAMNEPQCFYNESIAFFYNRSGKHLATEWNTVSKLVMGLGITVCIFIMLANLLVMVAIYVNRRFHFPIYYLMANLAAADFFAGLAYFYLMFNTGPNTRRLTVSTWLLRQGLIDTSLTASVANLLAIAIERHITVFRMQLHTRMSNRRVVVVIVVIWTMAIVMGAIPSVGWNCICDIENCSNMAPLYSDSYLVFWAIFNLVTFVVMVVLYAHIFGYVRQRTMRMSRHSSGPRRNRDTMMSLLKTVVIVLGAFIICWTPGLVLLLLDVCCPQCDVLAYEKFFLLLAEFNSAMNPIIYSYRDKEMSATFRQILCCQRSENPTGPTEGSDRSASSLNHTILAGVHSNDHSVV
Description: The effectiveness of compounds of the present invention as LPA1 inhibitors can be determined in an LPA1 functional antagonist assay as follows:
The cells were then equilibrated to room temperature for 30 minutes before the assay. […] IC50 values were determined by fitting data to a 4-parameter logistic equation (GraphPad Prism, San Diego CA).

IPF patients = conditions: 26-week clinical trial in IPF patients (Palmer et al.); cited from earlier work
nerve-injured mice = conditions: pretreatment, nerve-injured mice (Inoue et al.); cited from earlier work
[1] = system: human foetal lung fibroblasts; conditions: Tager et al.; cited from earlier work
UUO mice = conditions: cited from earlier work
[2] = system: mouse epithelial renal cell line, MCT; conditions: MCT cells, co-treatment with LPA; cited from earlier work
[3] = system: pancreatic cancer cell lines; conditions: cited from earlier work
[4] = CHO cells overexpressing human LPA1, calcium flux induced by 10 nM LPA, read-out: hLPA1 IC50

SMILES: Cc1nc(-c2nnn(C)c2CNc2noc(CC3CC3)n2)ccc1OC[C@H]1CC[C@@H]1C(=O)O (racemic) [Example 60, (±)-(1S,2S)-2-(((6-(5-(((5-(Cyclopropylmethyl)-1,2,4-oxadiazol-3-yl)amino)methyl)-1-methyl-1H-1,2,3-triazol-4-yl)-2-methylpyridin-3-yl)oxy)methyl) cyclobutane-1-carboxylic acid]
IC50 (human LPA1; [4]): 1160 nM

SMILES: Cc1noc(-c2ccc(OC[C@H]3CC[C@@H]3C(=O)O)cn2)c1CNc1nccc(-c2ccccn2)n1 (single isomer, unassigned) [Example 4]
IC50 (human LPA1; [4]): 14 nM

SMILES: Cc1nc(-c2nnn(C)c2COC(=O)N(C)CC2CCC2)ccc1OC[C@@H]1CC[C@H]1C(=O)O (single isomer, unassigned) [Example 7]
IC50 (human LPA1; [4]): 26 nM

SMILES: Cc1nc(-c2nnn(C)c2CNc2nccc(C(C)C)n2)ccc1OC[C@@H]1CC[C@H]1C(=O)O (single isomer, unassigned) [Example 24]
IC50 (human LPA1; [4]): 1150 nM

SMILES: Cn1nnc(-c2ccc(OC[C@@H]3CC[C@H]3C(=O)O)cn2)c1CNc1nccc(-c2ccccn2)n1 (single isomer, unassigned) [Example 28]
IC50 (human LPA1; [4]): 67 nM

SMILES: Cc1nc(-c2nnn(C)c2Cn2nnc(CC3CC3)n2)ccc1OC[C@@H]1CC[C@H]1C(=O)O (single isomer, unassigned) [Example 38]
IC50 (human LPA1; [4]): 63 nM

SMILES: Cc1noc(-c2ccc(-c3ccc(C4(C(=O)O)CC4)cc3)cc2)c1NC(=O)O[C@H](C)c1ccccc1 [BMS-986020]
rate of FVC (forced vital capacity) decline (IPF patients): significantly reduce

SMILES: Cc1nc(-c2nnn(C)c2COC(=O)N(C)CC2CCC2)ccc1O[C@H]1C[C@H](C(=O)O)C1 [Example 9, trans-3-((6-(5-((((cyclobutylmethyl)(methyl)carbamoyl)oxy)methyl)-1-methyl-1H-1,2,3-triazol-4-yl)-2-methylpyridin-3-yl)oxy)cyclobutane-1-carboxylic acid]
IC50 (human LPA1; [4]): 278 nM

SMILES: Cc1noc(-c2ccc(OCC3CC(C(=O)O)C3)cc2)c1COC(=O)N(C)C1CCCC1 (stereo not drawn) [Example 30, 3-((4-(4-(((Cyclopentyl(methyl)carbamoyl)oxy)methyl)-3-methylisoxazol-5-yl)phenoxy)methyl)cyclobutanecarboxylic acid]
IC50 (human LPA1; [4]): 316 nM

SMILES: Cc1noc(-c2ccc(OCC34CC(C(=O)O)(C3)C4)cc2)c1COC(=O)N(C)C1CCCC1 [Example 53, 3-((4-(4-(((cyclopentyl(methyl)carbamoyl)oxy)methyl)-3-methylisoxazol-5-yl)phenoxy)methyl)bicyclo[1.1.1]pentane-1-carboxylic acid]
IC50 (human LPA1; [4]): 604 nM

SMILES: CN(CC1CCC1)C(=O)OCc1c(-c2ccc(OCC34CC(C(=O)O)(C3)C4)cn2)nnn1C [Example 54, 3-(((6-(5-((((cyclobutylmethyl)(methyl)carbamoyl)oxy)methyl)-1-methyl-1H-1,2,3-triazol-4-yl)pyridin-3-yl)oxy)methyl)bicyclo[1.1.1]pentane-1-carboxylic acid]
IC50 (human LPA1): 427 nM

SMILES: Cc1nc(-c2nnn(C)c2CNc2noc(CCC(C)C)n2)ccc1OCC12CC(C(=O)O)(C1)C2 [Example 55, 3-(((6-(5-(((5-isopentyl-1,2,4-oxadiazol-3-yl)amino)methyl)-1-methyl-1H-1,2,3-triazol-4-yl)-2-methylpyridin-3-yl)oxy)methyl)bicyclo[1.1.1]pentane-1-carboxylic acid]
IC50 (human LPA1; [4]): 1980 nM

SMILES: Cc1nc(-c2nnn(C)c2COC(=O)N(C)CC2CCC2)ccc1OCC12CCC(C(=O)O)(C1)C2 [Example 57, 4-(((6-(5-((((cyclobutylmethyl)(methyl)carbamoyl)oxy)methyl)-1-methyl-1H-1,2,3-triazol-4-yl)-2-methylpyridin-3-yl)oxy)methyl)bicyclo[2.1.1]hexane-1-carboxylic acid]
IC50 (human LPA1; [4]): 82 nM

SMILES: C[C@@H](N)[C@H]1CC[C@H](C(=O)Nc2ccncc2)CC1 [Example Y-27632]
allodynia and hyperalgesia (nerve-injured mice): completely abolished

SMILES: Cc1noc(-c2ccc(CSCCC(=O)O)cc2)c1NC(=O)OC(C)c1ccccc1Cl (stereo not drawn) [Ki16425]
chemotaxis of human foetal lung fibroblasts induced by BAL from IPF patients [1]: blocked
development of renal fibrosis (UUO mice): closely resembled the profile of LPA1 (−/−) mice
LPA-induced expression of the profibrotic cytokine CTGF [2]: almost completely suppressed
LPA-induced and ascites-induced invasion activity ([3]; highly peritoneal metastatic pancreatic cancer cell line): blocked
in vitro migration in response to LPA and peritoneal fluid (ascites) from pancreatic cancer patients ([3]; pancreatic cancer cell lines (Yamada et al.)): effectively blocked

Further compounds by falling IC50 (human LPA1; [4]), results first:

IC50 (human LPA1; [4]): 789 nM
SMILES: Cc1nc(-c2nnn(C)c2COC(=O)N(C)CC2CCC2)ccc1O[C@H]1C[C@@H](C(=O)O)C1 [Example 10, cis-3-((6-(5-((((cyclobutylmethyl)(methyl)carbamoyl)oxy)methyl)-1-methyl-1H-1,2,3-triazol-4-yl)-2-methylpyridin-3-yl)oxy)cyclobutane-1-carboxylic acid]

IC50 (human LPA1; [4]): 417 nM
SMILES: CN(C(=O)OCc1c(-c2ccc(OCC34CC(C(=O)O)(C3)C4)cn2)nnn1C)C1CCCC1 [Example 51, 3-(((6-(5-(((cyclopentyl(methyl)carbamoyl)oxy)methyl)-1-methyl-1H-1,2,3-triazol-4-yl)pyridin-3-yl)oxy)methyl)bicyclo[1.1.1]pentane-1-carboxylic acid]

IC50 (human LPA1; [4]): 372 nM
SMILES: Cc1nc(-c2nnn(C)c2COC(=O)N(C)CC2CCC2)ccc1OCC12CC(C(=O)O)(C1)C2 [Example 52, 3-(((6-(5-((((cyclobutylmethyl)(methyl)carbamoyl)oxy)methyl)-1-methyl-1H-1,2,3-triazol-4-yl)-2-methylpyridin-3-yl)oxy)methyl)bicyclo[1.1.1]pentane-1-carboxylic acid]

IC50 (human LPA1; [4]): 250 nM
SMILES: Cc1nc(-c2nnn(C)c2Cn2nnc(CC3CC3)n2)ccc1OC[C@H]1CC[C@@H]1C(=O)O (single isomer, unassigned) [Example 39]

IC50 (human LPA1; [4]): 186 nM
SMILES: Cn1nnc(-c2ccc(OC[C@H]3CC[C@@H]3C(=O)O)cn2)c1CNc1nccc(-c2ccccn2)n1 (single isomer, unassigned) [Example 29]

IC50 (human LPA1; [4]): 77 nM
SMILES: CCc1cc(OCc2c(-c3ccc(OC[C@@H]4CC[C@H]4C(=O)O)c(C)n3)nnn2C)ncn1 (single isomer, unassigned) [Example 12]

IC50 (human LPA1; [4]): 51 nM
SMILES: Cc1nc(-c2nnn(C)c2CNc2nccc(C(C)C)n2)ccc1OC[C@H]1CC[C@@H]1C(=O)O (single isomer, unassigned) [Example 25]

IC50 (human LPA1; [4]): 28 nM
SMILES: CCc1cc(OCc2c(-c3ccc(OC[C@H]4CC[C@@H]4C(=O)O)c(C)n3)nnn2C)ncn1 (single isomer, unassigned) [Example 13]

IC50 (human LPA1; [4]): 22 nM
SMILES: Cc1nc(-c2onc(C)c2COC(=O)N(C)C2CCCC2)ccc1OCC12CCC(C(=O)O)(C1)C2 [Example 58, 4-(((6-(4-(((cyclopentyl(methyl)carbamoyl)oxy)methyl)-3-methylisoxazol-5-yl)-2-methylpyridin-3-yl)oxy)methyl)bicyclo[2.1.1]hexane-1-carboxylic acid]

IC50 (human LPA1; [4]): 7 nM
SMILES: Cc1noc(-c2ccc(OC[C@@H]3CC[C@H]3C(=O)O)cn2)c1CNc1nccc(-c2ccccn2)n1 (single isomer, unassigned) [Example 3]

IC50 (human LPA1; [4]): 6 nM
SMILES: Cc1nc(-c2nnn(C)c2COC(=O)N(C)CC2CCC2)ccc1OC[C@H]1CC[C@@H]1C(=O)O (single isomer, unassigned) [Example 8]
